Assays:
human A2B = target: T1, human A2B (Homo sapiens, UniProt P29275); test: cAMP HTRF assay for Gs coupled receptor, agonist test; assay type: cell-based; conditions: agonist activity; HEK293 cells expressing recombinant human A2B; read-out: A2BAR EC50
T1 construct: expressed in transfected cells; host or cells: HEK293
T1 sequence (P29275 1-332): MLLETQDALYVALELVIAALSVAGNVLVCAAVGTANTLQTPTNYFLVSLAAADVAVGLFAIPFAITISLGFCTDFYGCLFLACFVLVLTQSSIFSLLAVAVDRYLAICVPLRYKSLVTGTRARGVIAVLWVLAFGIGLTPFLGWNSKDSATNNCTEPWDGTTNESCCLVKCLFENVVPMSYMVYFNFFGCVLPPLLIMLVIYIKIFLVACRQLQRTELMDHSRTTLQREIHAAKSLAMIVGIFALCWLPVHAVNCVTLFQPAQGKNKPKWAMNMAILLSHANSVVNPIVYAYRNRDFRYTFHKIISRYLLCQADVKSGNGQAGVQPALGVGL
Method: (§1) SPA ^35S-GTPγS experiments were conducted with Epics Therapeutics membrane preparations. cAMP HTRF assays were conducted with recombinant cell lines.
Dose response curves are performed in parallel with the reference compounds.
For agonist test (96 well): 12 μL of cells are mixed with 12 μL of the test compound at increasing concentrations and then incubated 30 min at room temperature. After addition of the lysis buffer containing cAMP-d2 and anti-cAMP cryptate detection reagents, plates are incubated 1 hour incubation at room temperature, and fluorescence ratios are measured according to the manufacturer specification, with the HTRF kit.

[1] = target: T2, human Adenosine A1 receptor (Homo sapiens, UniProt P30542); test: GTPγS scintillation proximity assay, agonist testing; assay type: biochemical; conditions: agonist activity; membrane extracts of CHO-K1 cells expressing recombinant human A1; read-out: A1AR EC50
T2 construct: host or cells: CHO-K1
T2 sequence (P30542 1-326): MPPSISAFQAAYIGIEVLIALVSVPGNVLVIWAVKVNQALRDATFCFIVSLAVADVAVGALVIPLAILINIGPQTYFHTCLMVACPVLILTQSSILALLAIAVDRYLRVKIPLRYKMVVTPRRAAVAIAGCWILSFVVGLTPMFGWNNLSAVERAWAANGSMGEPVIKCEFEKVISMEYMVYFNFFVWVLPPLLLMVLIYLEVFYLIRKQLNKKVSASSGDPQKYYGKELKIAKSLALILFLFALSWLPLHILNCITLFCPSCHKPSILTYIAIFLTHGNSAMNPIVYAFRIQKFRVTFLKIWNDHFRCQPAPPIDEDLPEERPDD
Method: as §1
• Assay buffer: 20 mM HEPES pH 7.4; 100 mM NaCl, 10 μg/mL saponin, MgCl2 at optimized concentration for the specific receptor. • Membranes: membrane extracts prepared from CHO-K1 cells expressing recombinant human Adenosine A1 receptor, thawed on ice, diluted in assay buffer and kept on ice. • GDP: diluted in assay buffer at the optimized concentration for the specific receptor Beads: PVT-WGA (Perkin Elmer, RPNQ001), diluted in assay buffer at 50 mg/mL (0.5 mg/10 μL) • GTPγ^35S: (Perkin Elmer, NEG030X), diluted in assay buffer for a final 0.1 nM assay concentration
Protocol for agonist testing: membranes are mixed with GDP (volume:volume). In parallel, GTPγ[^35S] is mixed with the beads (volume:volume) just before starting the reaction. The following reagents are successively added in the wells of an Optiplate (Perkin Elmer): 50 μL of test or reference ligand, 25 μL of the membranes:GDP mix, and 25 μL of the GTPγ[^35S]:beads mix. The plates are covered with a top seal, mixed on an orbital shaker for 2 min, and then incubated for 1 hour at room temperature. Then the plates are centrifuged for 10 min at 2000 rpm, incubated at room temperature and counted for 30 sec/well with a PerkinElmer TopCount™ reader. • Conditions for the GTPγS scintillation proximity assay are shown in Table 14.

EC50 (human A2B) | EC50 [1] | Compound
8100 nM | > 10000 nM | Cc1ccc(CSc2nc(N3CCC3)c(C#N)c(-c3ccc(OCCO)cc3)c2C#N)c(C)n1 [Compound 74]
> 10000 nM | 80 nM | COCCOc1ccc(-c2c(C#N)c(N)nc(SCc3cncnc3)c2C#N)cc1 [Compound 198]
> 10000 nM | 124 nM | COCCOc1ccc(-c2c(C#N)c(N)nc(SCC3CCOC3)c2C#N)cc1 (centres unmarked) [Compound 36]
116 nM | 30.3 nM | N#Cc1c(SCc2cccnc2)nc(N2CC(F)C2)c(C#N)c1-c1ccc(OC2COC2)cc1 [Compound 271]
> 10000 nM | 9.7 nM | COCCOc1ccc(-c2c(C#N)c(N)nc(SCc3cccnn3)c2C#N)cc1 [Compound 195]
> 10000 nM | > 10000 nM | COCCOc1ccc(-c2c(C#N)c(SCc3ncccn3)nc(N3CC(F)C3)c2C#N)cc1 [Compound 251]
> 10000 nM | 7600 nM | COCCOc1ccc(-c2c(C#N)c(N)nc(SCc3cccc4c3CCO4)c2C#N)cc1 [Compound 212]
5.3 nM | 94.2 nM | CC(O)COc1ccc(-c2c(C#N)c(SCc3cccnc3)nc(N3CCCC3)c2C#N)cc1 (centres unmarked) [Compound 52]
> 10000 nM | 944 nM | COCCOc1ccc(-c2c(C#N)c(N)nc(SCC3CCO3)c2C#N)cc1 (centres unmarked) [Compound 112]
20 nM | 61.5 nM | COc1nc(SCc2cccnc2)c(C#N)c(-c2ccc(OCCO)cc2)c1C#N [Compound 282]
> 10000 nM | > 10000 nM | COCCOc1ccc(-c2c(C#N)c(SCc3cccnc3)nc(N(C)C)c2C#N)cc1 [Compound 286]
45 nM | 1790 nM | CNC(=O)CSc1nc(N2CCCC2)c(C#N)c(-c2ccc(OCCOC)cc2)c1C#N [Compound 79]
2410 nM | > 10000 nM | COCCOc1ccc(-c2c(C#N)c(N)nc(SCc3ccnc4[nH]ccc34)c2C#N)cc1 [Compound 4]
> 10000 nM | 1070 nM | N#Cc1c(SCc2cccnc2)nc(N2CC(F)C2)c(C#N)c1-c1ccc(OCCOC(F)F)cc1 [Compound 266]
> 10000 nM | > 10000 nM | COCCOc1ccc(-c2c(C#N)c(N)nc(SCc3cccc4[nH]ncc34)c2C#N)cc1 [Compound 214]
> 10000 nM | > 10000 nM | COCCOc1ccc(-c2c(C#N)c(N)nc(Sc3cccnc3)c2C#N)cc1 [Compound 246]
> 10000 nM | 91 nM | COCCOc1ccc(-c2c(C#N)c(N)nc(SCC(C)O)c2C#N)cc1 (centres unmarked) [Compound 127]
> 10000 nM | 205 nM | COCCOc1ccc(-c2c(C#N)c(SCC3COC3)nc(N3CC(O)C3)c2C#N)cc1 [Compound 270]
0.7 nM | 7.2 nM | CC(O)COc1ccc(-c2c(C#N)c(SCc3cccnc3)nc(N3CCC3)c2C#N)cc1 (centres unmarked) [Compound 53, 2-(azetidin-1-yl)-4-[4-(2-hydroxypropoxy)phenyl]-6-(3-pyridylmethylsulfanyl)-pyridine-3,5-dicarbonitrile]
> 10000 nM | 276 nM | COCCOc1ccc(-c2c(C#N)c(N)nc(S[C@H](C)c3cccnc3)c2C#N)cc1 [Compound 248]

The remaining lines, values behind:

Compound | EC50 (human A2B) | EC50 [1]
CC(C)(O)COc1ccc(-c2c(C#N)c(SCc3cccnc3)nc(N3CCCC3)c2C#N)cc1 [Compound 50] | 94.2 nM | 294 nM
N#Cc1c(SCc2cccnc2)nc(N2CCCC2)c(C#N)c1-c1ccc(OC(F)(F)CO)cc1 [Compound 263] | > 10000 nM | > 10000 nM
CC(C)(O)COc1ccc(-c2c(C#N)c(N)nc(SCc3cccnc3)c2C#N)cc1 [Compound 51] | 5.1 nM | 38 nM
Cn1ccc2c(CSc3nc(N)c(C#N)c(-c4ccc(OC5COC5)cc4)c3C#N)cccc21 [Compound 302] | 894 nM | 64.8 nM
CNC(=O)CSc1nc(N)c(C#N)c(-c2ccc(OCCOC)cc2)c1C#N [Compound 146] | 59 nM | 177 nM
CNCCSc1nc(N)c(C#N)c(-c2ccc(OCCO)cc2)c1C#N [Compound 128] | 255 nM | > 10000 nM
N#Cc1c(N)nc(OCCC2COC2)c(C#N)c1-c1ccc(OC2COC2)cc1 [Compound 307] | > 10000 nM | > 10000 nM
CN(C)c1nc(SCC2COC2)c(C#N)c(-c2ccc(OC3COC3)cc2)c1C#N [Compound 318] | > 10000 nM | 32.1 nM
N#Cc1cnc(SCc2cccnc2)c(C#N)c1-c1ccc(OCCO)cc1 [Compound 84] | 6.8 nM | 44 nM
CNc1nc(SCC2COC2)c(C#N)c(-c2ccc(OC3COC3)cc2)c1C#N [Compound 230] | > 10000 nM | 5.2 nM
N#Cc1c(N)nc(SCCC2CCO2)c(C#N)c1-c1ccc(OCCO)cc1 (centres unmarked) [Compound 10] | 3760 nM | > 10000 nM
N#Cc1c(N)nc(SCCC(F)(F)F)c(C#N)c1-c1ccc(OC2CCOC2)cc1 (centres unmarked) [Compound 220] | > 10000 nM | > 10000 nM
N#Cc1c(SCc2cccnc2)nc(N2CCC2)c(C#N)c1-c1ccc(OC(F)(F)CO)cc1 [Compound 259, 2-(Azetidin-1-yl)-4-(4-(1,1-difluoro-2-hydroxyethoxy)phenyl)-6-((pyridin-3-ylmethyl)thio)pyridine-3,5-dicarbonitrile] | 198 nM | > 10000 nM
N#Cc1c(N)nc(SCc2n[nH]c3ccccc23)c(C#N)c1-c1ccc(OCCO)cc1 [Compound 207] | 108 nM | 739 nM
N#Cc1c(N)nc(OC[C@H]2CCOC2)c(C#N)c1-c1ccc(OC2COC2)cc1 [Compound 290] | > 10000 nM | 265 nM
N#Cc1c(SCC2COC2)nc(N2CC(F)(F)C2)c(C#N)c1-c1ccc(OCCO)cc1 [Compound 273] | > 10000 nM | 295 nM
N#Cc1c(N)nc(SCC2OCCCO2)c(C#N)c1-c1ccc(OC2COC2)cc1 [Compound 291] | 9890 nM | 208 nM
CCOCCSc1nc(N)c(C#N)c(-c2ccc(OCCO)cc2)c1C#N [Compound 27] | 65.9 nM | 31.4 nM
N#Cc1c(N)nc(OCC2CCCOC2)c(C#N)c1-c1ccc(OC2COC2)cc1 (centres unmarked) [Compound 300, 2-Amino-4-(4-(oxetan-3-yloxy)phenyl)-6-((tetrahydro-2H-pyran-3-yl)methoxy)pyridine-3,5-dicarbonitrile] | > 10000 nM | 1150 nM
COCC(F)(F)Oc1ccc(-c2c(C#N)c(N)nc(SCC3COC3)c2C#N)cc1 [Compound 310] | > 10000 nM | > 10000 nM
CC(O)COc1ccc(-c2c(C#N)c(N)nc(SCC3COC3)c2C#N)cc1 (centres unmarked) [Compound 316] | 305 nM | 10.8 nM
N#Cc1c(N)nc(SC2CCOCC2)c(C#N)c1-c1ccc(OCCO)cc1 [Compound 32] | > 10000 nM | 890 nM
CC1(CSc2nc(N)c(C#N)c(-c3ccc(OC4COC4)cc3)c2C#N)COC1 [Compound 327] | > 10000 nM | 22.1 nM
N#Cc1c(N)nc(SCC(N)=O)c(C#N)c1-c1ccc(OCCO)cc1 [Compound 129] | 6 nM | 121 nM
CNCCSc1nc(N)c(C#N)c(-c2ccc(OCCOC)cc2)c1C#N [Compound 140] | > 10000 nM | 7500 nM
CN(C)c1nc(SCC2COC2)c(C#N)c(-c2ccc(OC3COC3)cc2)c1C#N [Compound 222] | > 10000 nM | 32 nM
N#CCCSc1nc(N)c(C#N)c(-c2ccc(OCCO)cc2)c1C#N [Compound 121] | 576 nM | 327 nM
N#Cc1c(SCc2cccnc2)nc(N2CC(F)(F)C2)c(C#N)c1-c1ccc(OC(F)(F)CO)cc1 [Compound 256] | > 10000 nM | > 10000 nM
COCCOc1ccc(-c2c(C#N)c(N)nc(OCc3cccnc3)c2C#N)cc1 [Compound 193] | > 10000 nM | 49 nM
